By IC50 is commonly meant the midpoint of a concentration-inhibition curve.

The record followed here is patent US10363257B2 (ZENITH EPIGENETICS LTD., priority 2013, dated 2019).

One experiment has as its system MV4-11 cells. As to the kind of experiment: In vivo efficacy in athymic nude mouse acute myeloid leukemia xenograft model using MV4-11 cells. To be noted: MV4-11 AML xenograft, oral, 75 mg/kg b.i.d and 120 mg/kg b.i.d. The procedure: MV4-11 cells (ATCC) are grown under standard cell culture conditions and (NCr) nu/nu fisol strain of female mice age 6-7 weeks are injected with 5×10^6 cells/animal in 100 μL PBS+100 μL Matrigel in the lower left abdominal flank. By approximately day 18 after MV4-11 cells injection, mice are randomized based on tumor volume (L×W×H)/2) of average ˜120 mm^3. Mice are dosed orally with compound at 75 mg/kg b.i.d and 120 mg/kg b.i.d in EA006 formulation at 10 mL/kg body weight dose volume. Tumor measurements are taken with electronic micro calipers and body weights measured on alternate days beginning from dosing period. The average tumor volumes, percent Tumor Growth Inhibition (TGI) and % change in body weights are compared relative to Vehicle control animals. The means, statistical analysis and the comparison between groups are calculated using Student's t-test in Excel.

A short description of experiment [1]: In vivo efficacy in experimental autoimmune encephalomyelitis (EAE) model of MS. Further details: species or system mouse. The settings on record: EAE mice (MOG35-55/CFA, female C57Bl/6), 50 to 125 mg/kg b.i.d. from time of immunization. The source says:
Experimental autoimmune encephalomyelitis (EAE) is a T-cell-mediated autoimmune disease of the CNS which shares many clinical and histopathological features with human multiple sclerosis (MS). EAE is the most commonly used animal model of MS. […] Cytokines IL-23, IL-6 and IL-17, which are either critical for Th1 and Th17 differentiation or produced by these T cells, play a critical and non-redundant role in EAE development. Therefore, drugs targeting production of these cytokines are likely to have therapeutic potential in treatment of MS.
Compounds of Formula I or la were administered at 50 to 125 mg/kg b.i.d. from time of immunization to EAE mice to assess anti-inflammatory activity. In this model, EAE is induced by MOG35-55/CFA immunization and pertussis toxin injection in female C57BI/6 mice.

The test system of another experiment is hApoA-1 mRNA. As to the kind of experiment: Up-regulation of hApoA-1 mRNA transcription in Huh7 cells. Type of experiment: cell-based, human. To be noted: EC170, Huh7 cells, 48 h treatment, ApoA-I mRNA. On the procedure: In this example, ApoA-I mRNA in tissue culture cells was quantitated to measure the transcriptional up-regulation of ApoA-I when treated with a compound of the invention.
Huh7 cells (2.5×10^5 per well) were plated in a 96-well plate using 100 μL DMEM per well, (Gibco DMEM supplemented with penicillin/streptomycin and 10% FBS), 24 h before the addition of the compound of interest. After 48 h treatment, the spent media was removed from the Huh-7 cells and placed on ice (for immediate use) or at −80° C. (for future use) with the “LDH cytotoxicity assay Kit II” from Abcam. The cells remaining in the plate were rinsed with 100 μL PBS.
Then 85 μL of cell lysis solution was added to each well and incubated for 5-10 min at room temperature, to allow for complete cell lysis and detachment. mRNA was then prepared using the “mRNA Catcher PLUS plate” from Life Technologies, according to the protocol supplied. After the last wash, as much wash buffer as possible was aspirated without allowing the wells to dry. […]
The eluted mRNA isolated was then used in a one-step real-time PCR reaction, using components of the Ultra Sense Kit together with Life Technologies primer-probe mixes. Real-time PCR data was analyzed, using the Ct values, to determine the fold induction of each unknown sample, relative to the control (that is, relative to the control for each independent DMSO concentration).

Another experiment has as its system human AML MV-4-11 cells. Nature of the experiment: Inhibition of cell proliferation in MV4-11 cells (CellTiter Aqueous One). Type of experiment: cell-based. To be noted: MV4-11, 72 h. In a few lines: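 Exponentially growing MV-4-11 cells (5×10^4/well) were treated immediately with two-fold dilutions of compound from 30 μM to 0.2 μM, in triplicate, for 72 h at 37° C, 5% CO2. Viability was measured by MTS absorbance at 490 nm after 3–4 h. Proliferation relative to DMSO after blank correction gave IC50.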

Experiment [2] deals with T1, Brd4 bromodomain 1 (BRD4(1)) (Homo sapiens, UniProt O60885).
T1 construct: made in house; host or cells: E. coli BL21(DE3)
As to the kind of experiment: Inhibition of tetra-acetylated histone H4 binding to Brd4 bromodomain 1 (TR-FRET). To be noted: tetra-acetylated histone H4 peptide, first bromodomain of Brd4. In a few lines:
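His-tagged BRD4(1) from E. coli (200 nM) with biotinylated tetra-acetylated H4 peptide (25-50 nM), Eu-cryptate streptavidin and XL665 anti-His, in HEPES pH 7.4/phosphate/KF buffer, 0.2% DMSO. After 2 h at room temperature, TR-FRET 665/620 nm ratio read; IC50 from dose-response curves.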

Turning to `Cc1noc(C)c1-c1cc(N)c2ncn(Cc3ccccc3)c2c1` [Example Compound 7, 1-Benzyl-6-(3,5-dimethylisoxazol-4-yl)-1H-benzo[d]imidazol-4-amine], the In vivo activity entry (in the experiment on MV4-11 cells; in experiment [1]) was “Active” in each case. Moreover, the ApoA-1 activity result in the experiment with hApoA-1 mRNA is on record as “+++ (EC170 value less than or equal to 0.3 μM were deemed to be highly active (+++))”. In addition, the half-inhibitory concentration (IC50) (in the experiment with human AML MV-4-11 cells; in experiment [2]) was no more than 300 nM throughout.
